Counter-ions that a name gives are not always drawn.
Legend:
Format in all cases: in vivo
[1] = tested on: Vav2/3^ko mouse; assay: Intraocular pressure after Y-27632 eye drop, Test Example 3; conditions: 7-week old Vav2/3^ko; 3 μL of 1 mM/PBS solution to eye; one hour after administration
Procedure: (§1) For No. 20 of each of the 7-week old Vav2/3^ko, Vav2^ko and Vav3^ko, intraocular pressure was measured between 10 o'clock in the morning and noon by using a Tonometer and then 3 μL of 1 mM/PBS solution of Y-27632 (Calbiochem), which is an inhibitor for Rho-associated protein kinase and has been reported to have an activity of reducing intraocular pressure by acting on an outflow tract for aqueous humor, or 3 μL of PBS solution was applied to an eye. One hour after the administration, the intraocular pressure was measured again.

[2] = tested on: Vav3^ko mouse; assay: as above; conditions: 7-week old Vav3^ko; 3 μL of 1 mM/PBS solution to eye; one hour after administration
Procedure: as §1

[3] = tested on: Vav2^ko mouse; assay: as above; conditions: 7-week old Vav2^ko; 3 μL of 1 mM/PBS solution to eye; one hour after administration
Procedure: as §1

[4] = tested on: Vav2/3^ko mouse; assay: Intraocular pressure after eye-drop administration, Example 5; conditions: for Ratio of effect on intraocular pressure: Vav2/3^ko
Procedure: (§2) For the No. 20 animal of each of the 7-week old Vav2/3^ko and Vav2^ko, intraocular pressure was measured between 10 o'clock in the morning and noon by using a Tonometer. Then, 3 μL solution containing 0.02% benzalkonium chloride, 0.5% NaH2PO4, 0.6% Na2HPO4, 0.4% sodium chloride and 0.005% Latanoprost (manufactured by Cayman Chemical), or solution having the same composition except that no latanoplast was contained was applied to an eye of the animal based on a blind testing method. Three hours later, the intraocular pressure was measured again. In addition, to Vav2/3^ko, 3 μL eye-drop solution containing timolol maleate (Trade name; Timoptol, Merck Company, USA, 0.5% solution), or 3 μL eye-drop solution containing dorzolamide hydrochloride (Trade name; Trusopt, Merck Company, USA, 1% solution), both having a different mechanism for reducing intraocular pressure compared to latanoprost, was applied instead of the solution containing latanoprost as described above. Two hours after the application, change in the intraocular pressure was measured.

[5] = tested on: Vav2^ko mouse; assay: as above; conditions: 7-week old Vav2^ko
Procedure: as §2

[6] = tested on: Vav2/3^ko mouse; assay: Intraocular pressure after latanoprost eye drop, Example 4; conditions: 8- to 9-week old Vav2/3^ko mouse; 3 μL 0.01%/PBS applied; three hours later; vs PBS control
Procedure: For the 8- to 9-week old Vav2/3^ko mouse (No. 12), intraocular pressure was measured between 10 o'clock in the morning and noon by using a Tonometer. Then, 3 μL of latanoplast (0.01%/PBS, manufactured by Cayman Chemical) of a prostaglandin derivative as a therapeutic agent for glaucoma was applied and the intraocular pressure was measured again three hours later. As a control, a group administered only with PBS was prepared at the same time, and analysis was carried out based on Student's t-test (P<0.05). […] Therefore, it was confirmed that the mouse of the present invention is a useful model for evaluation of a therapeutic agent for glaucoma.

[7] = 3 μL eye-drop solution (timolol maleate 0.5%, dorzolamide hydrochloride 1%), two hours after application

SMILES: C[C@@H](N)[C@H]1CC[C@H](C(=O)Nc2ccncc2)CC1 [Y-27632]
- activity of reducing the intraocular pressure [1]: did not show any activity of reducing the intraocular pressure
- activity of reducing the intraocular pressure [2]: did not show any activity of reducing the intraocular pressure
- activity of reducing the intraocular pressure [3]: did not show any activity of reducing the intraocular pressure

SMILES: CCN[C@H]1C[C@H](C)S(=O)(=O)c2sc(S(N)(=O)=O)cc21 [dorzolamide hydrochloride]
- Ratio of effect on intraocular pressure [4, 7]: 20%

SMILES: CC(C)OC(=O)CCC/C=C\C[C@@H]1[C@@H](CC[C@@H](O)CCc2ccccc2)[C@H](O)C[C@@H]1O [latanoprost]
- intraocular pressure three hours after administration ([4]; 7-week old Vav2/3^ko, 3 μL 0.005% solution to eye, three hours later, P<0.01): 15.8±5.1 mmHg
- intraocular pressure twenty four hours after eye drop administration ([4]; 7-week old Vav2/3^ko, 3 μL 0.005% solution, twenty four hours after): came back to the high value which is the same as the one before the eye drop administration
- intraocular pressure before administration ([4]; 7-week old Vav2/3^ko, before eye drop of 3 μL 0.005% solution): 26.3±5.0 mmHg
- Ratio of effect on intraocular pressure ([4]; 3 μL 0.005% latanoprost solution, three hours later): about 40%
- intraocular pressure three hours after administration ([5]; 3 μL 0.005% solution to eye, three hours later, P<0.01): 14.5 mmHg
- intraocular pressure before administration ([5]; before eye drop of 3 μL 0.005% solution): 17.4 mmHg
- intraocular pressure change [6]: reduced

SMILES: CC(C)(C)NC[C@H](O)COc1nsnc1N1CCOCC1 [timolol maleate]
- Ratio of effect on intraocular pressure [4, 7]: 15%

Source: patent US8304601B2, “Mouse model for eye disease” (priority 2007, dated 2012)
